Test results: article PMC9399118, “Pentadecanoylcarnitine is a newly discovered endocannabinoid with pleiotropic activities relevant to supporting physical and mental health” (Scientific Reports, 2022)
pEC50, pIC50: −log10 of the molar value.

Assays:
[1] = target: T1, cannabinoid receptor 2 (CB2) (Homo sapiens, UniProt P34972); assay: cell-based GPCR cAMP modulation assay, […] doses; conditions: read-out: half-maximal effective concentration
T1 construct: gene CNR2; full-length receptor expected in commercial panel cell line (Eurofins/DiscoverX SafetyScan47)

[2] = target: T2, histamine H1 receptor (H1R) (Homo sapiens, UniProt P35367); assay: cell-based SafetyScan47 dose-response assay, […] doses; conditions: read-out: half-maximal inhibitory concentration
T2 construct: gene HRH1; full-length receptor expected in commercial panel cell line (Eurofins/DiscoverX SafetyScan47)

[3] = target: T3, serotonin 1A receptor (5-HT1A) (Homo sapiens, UniProt P08908); assay: as above; conditions: read-out: half-maximal effective concentration
T3 construct: gene HTR1A; full-length receptor expected in commercial panel cell line (Eurofins/DiscoverX SafetyScan47)

[4] = target: T4, cannabinoid receptor 1 (CB1) (Homo sapiens, UniProt P21554); assay: cell-based GPCR cAMP modulation assay, […] doses; conditions: read-out: half-maximal effective concentration
T4 construct: gene CNR1; full-length receptor expected in commercial panel cell line (Eurofins/DiscoverX SafetyScan47)

[5] = target: T5, serotonin 1B receptor (5-HT1B) (Homo sapiens, UniProt P28222); assay: cell-based SafetyScan47 dose-response assay, […] doses; conditions: read-out: half-maximal effective concentration
T5 construct: gene HTR1B; full-length receptor expected in commercial panel cell line (Eurofins/DiscoverX SafetyScan47)

[6] = target: T6, histamine H2 receptor (H2R) (Homo sapiens, UniProt P25021); assay: as above; conditions: read-out: half-maximal inhibitory concentration
T6 construct: gene HRH2; full-length receptor expected in commercial panel cell line (Eurofins/DiscoverX SafetyScan47)
T6 sequence (P25021 whole entry): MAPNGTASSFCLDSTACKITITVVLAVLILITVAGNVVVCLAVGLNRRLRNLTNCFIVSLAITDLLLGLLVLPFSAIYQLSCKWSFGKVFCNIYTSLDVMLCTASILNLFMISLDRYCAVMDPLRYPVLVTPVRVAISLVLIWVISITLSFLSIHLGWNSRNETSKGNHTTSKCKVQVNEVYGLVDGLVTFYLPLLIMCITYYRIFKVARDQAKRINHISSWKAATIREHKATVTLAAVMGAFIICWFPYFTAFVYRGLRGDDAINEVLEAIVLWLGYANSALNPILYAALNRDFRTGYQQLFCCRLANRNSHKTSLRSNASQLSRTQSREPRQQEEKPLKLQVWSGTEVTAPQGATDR

T2 sequence (P35367 whole entry): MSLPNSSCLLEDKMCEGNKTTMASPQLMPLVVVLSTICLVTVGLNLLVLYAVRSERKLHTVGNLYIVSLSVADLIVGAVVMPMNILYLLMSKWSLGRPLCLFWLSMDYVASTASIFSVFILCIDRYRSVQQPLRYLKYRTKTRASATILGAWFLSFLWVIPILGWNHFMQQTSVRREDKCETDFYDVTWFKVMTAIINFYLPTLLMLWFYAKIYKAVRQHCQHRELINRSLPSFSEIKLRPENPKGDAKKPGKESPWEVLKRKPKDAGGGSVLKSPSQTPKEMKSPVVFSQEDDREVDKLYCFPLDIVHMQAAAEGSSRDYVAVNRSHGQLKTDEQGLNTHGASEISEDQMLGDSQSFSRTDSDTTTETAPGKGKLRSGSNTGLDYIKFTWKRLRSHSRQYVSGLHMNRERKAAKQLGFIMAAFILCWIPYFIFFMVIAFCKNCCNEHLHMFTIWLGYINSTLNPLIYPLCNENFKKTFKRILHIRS
T3 sequence (P08908 whole entry): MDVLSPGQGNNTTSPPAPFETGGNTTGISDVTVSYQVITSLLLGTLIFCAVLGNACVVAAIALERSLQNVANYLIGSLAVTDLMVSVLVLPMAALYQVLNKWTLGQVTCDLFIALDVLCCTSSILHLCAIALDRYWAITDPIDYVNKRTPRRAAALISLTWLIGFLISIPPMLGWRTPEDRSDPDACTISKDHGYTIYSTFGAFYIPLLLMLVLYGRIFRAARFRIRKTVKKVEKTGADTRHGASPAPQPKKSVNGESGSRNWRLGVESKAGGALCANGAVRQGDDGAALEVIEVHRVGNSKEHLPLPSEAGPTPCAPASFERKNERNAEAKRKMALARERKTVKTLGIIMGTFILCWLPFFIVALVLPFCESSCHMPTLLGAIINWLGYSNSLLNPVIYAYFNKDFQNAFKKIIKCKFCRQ
T5 sequence (P28222 whole entry): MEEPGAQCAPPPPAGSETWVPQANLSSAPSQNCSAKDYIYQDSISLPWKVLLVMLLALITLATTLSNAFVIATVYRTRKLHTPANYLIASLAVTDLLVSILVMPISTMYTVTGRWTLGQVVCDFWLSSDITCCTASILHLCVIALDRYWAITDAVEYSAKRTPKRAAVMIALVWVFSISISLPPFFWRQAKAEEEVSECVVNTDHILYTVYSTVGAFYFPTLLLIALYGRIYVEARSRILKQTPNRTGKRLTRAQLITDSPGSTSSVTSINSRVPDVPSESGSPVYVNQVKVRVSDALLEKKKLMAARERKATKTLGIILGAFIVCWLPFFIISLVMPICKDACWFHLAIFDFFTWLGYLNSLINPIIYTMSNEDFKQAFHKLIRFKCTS
T4 sequence (P21554 whole entry): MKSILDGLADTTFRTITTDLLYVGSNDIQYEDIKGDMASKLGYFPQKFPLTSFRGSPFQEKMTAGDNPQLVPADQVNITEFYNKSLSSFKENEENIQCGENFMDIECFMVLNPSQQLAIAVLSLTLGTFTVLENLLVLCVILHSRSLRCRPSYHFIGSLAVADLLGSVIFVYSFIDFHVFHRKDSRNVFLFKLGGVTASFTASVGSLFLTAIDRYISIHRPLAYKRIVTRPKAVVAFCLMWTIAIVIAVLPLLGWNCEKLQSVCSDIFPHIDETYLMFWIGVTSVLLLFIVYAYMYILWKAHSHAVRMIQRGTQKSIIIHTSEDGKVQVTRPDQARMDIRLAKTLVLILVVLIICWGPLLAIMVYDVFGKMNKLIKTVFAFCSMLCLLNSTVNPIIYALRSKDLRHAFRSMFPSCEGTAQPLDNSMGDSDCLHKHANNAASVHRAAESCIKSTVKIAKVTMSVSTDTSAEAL
T1 sequence (P34972 whole entry): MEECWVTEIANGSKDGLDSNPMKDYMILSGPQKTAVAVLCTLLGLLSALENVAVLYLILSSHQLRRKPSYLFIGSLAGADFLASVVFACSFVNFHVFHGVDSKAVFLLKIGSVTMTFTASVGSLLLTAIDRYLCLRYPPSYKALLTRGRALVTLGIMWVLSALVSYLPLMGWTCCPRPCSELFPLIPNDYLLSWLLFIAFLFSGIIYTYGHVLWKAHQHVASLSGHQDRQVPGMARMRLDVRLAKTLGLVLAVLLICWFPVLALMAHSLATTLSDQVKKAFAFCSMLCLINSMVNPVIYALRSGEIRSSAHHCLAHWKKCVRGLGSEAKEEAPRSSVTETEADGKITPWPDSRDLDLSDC

CCCCCCCCCCCCCCC(=O)O[C@H](CC(=O)[O-])C[N+](C)(C)C [pentadecanoylcarnitine]
pEC50 [1]: 5.49
pIC50 [2]: 4.96
pEC50 [3]: 5.02
pEC50 [4]: 5.43
pEC50 [5]: 5.03
pIC50 [6]: 5.21
